Measured values from PMC9823632, “Nitrogen Acquisition and Transport in the Ectomycorrhizal Symbiosis—Insights from the Interaction between an Oak Tree and Pisolithus tinctorius” (Plants, 2022).

How the values were obtained:
[1] = biological target: T1, QsAMT1.2-like (QsAMT1.2) (Quercus suber, UniProt Z9N9G6J3T1); test: […]-methylammonium uptake in transformed yeast, Michaelis-Menten and Lineweaver-Burk; type: cell-based; conditions: labelled compound; yeast 31019b; substrate of the Km taken from the methods; read-out: apparent Km
T1 construct: full-length cDNA from ectomycorrhizal cork oak roots in pDR196, expressed in yeast strain 31019b (mep1 mep2 mep3 deleted)
T1 sequence (Z9N9G6J3T1 1-510): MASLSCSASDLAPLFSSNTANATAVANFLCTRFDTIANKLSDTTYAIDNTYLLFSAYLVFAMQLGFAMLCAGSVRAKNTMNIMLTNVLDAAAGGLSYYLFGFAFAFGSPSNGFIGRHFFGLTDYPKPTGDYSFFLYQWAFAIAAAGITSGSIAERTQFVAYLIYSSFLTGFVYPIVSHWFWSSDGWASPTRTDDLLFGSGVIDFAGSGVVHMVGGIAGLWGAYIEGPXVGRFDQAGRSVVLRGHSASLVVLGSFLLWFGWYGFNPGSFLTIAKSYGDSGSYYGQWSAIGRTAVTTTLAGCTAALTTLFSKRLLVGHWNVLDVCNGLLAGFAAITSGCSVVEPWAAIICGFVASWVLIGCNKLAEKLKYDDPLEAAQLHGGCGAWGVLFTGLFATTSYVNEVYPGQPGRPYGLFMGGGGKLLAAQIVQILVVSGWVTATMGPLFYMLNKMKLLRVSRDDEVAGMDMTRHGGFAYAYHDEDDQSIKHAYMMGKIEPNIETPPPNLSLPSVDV

[2] = biological target: T2, QsAMT3.2-like (QsAMT3.2) (Quercus suber, UniProt Z9KUH6IWZ3); test: as above; type: cell-based; conditions: labelled compound; yeast 31019b; substrate of the Km taken from the methods; read-out: apparent Km
T2 construct: full-length cDNA from ectomycorrhizal cork oak roots in pDR196, expressed in yeast strain 31019b (mep1 mep2 mep3 deleted)
T2 sequence (Z9KUH6IWZ3 1-486): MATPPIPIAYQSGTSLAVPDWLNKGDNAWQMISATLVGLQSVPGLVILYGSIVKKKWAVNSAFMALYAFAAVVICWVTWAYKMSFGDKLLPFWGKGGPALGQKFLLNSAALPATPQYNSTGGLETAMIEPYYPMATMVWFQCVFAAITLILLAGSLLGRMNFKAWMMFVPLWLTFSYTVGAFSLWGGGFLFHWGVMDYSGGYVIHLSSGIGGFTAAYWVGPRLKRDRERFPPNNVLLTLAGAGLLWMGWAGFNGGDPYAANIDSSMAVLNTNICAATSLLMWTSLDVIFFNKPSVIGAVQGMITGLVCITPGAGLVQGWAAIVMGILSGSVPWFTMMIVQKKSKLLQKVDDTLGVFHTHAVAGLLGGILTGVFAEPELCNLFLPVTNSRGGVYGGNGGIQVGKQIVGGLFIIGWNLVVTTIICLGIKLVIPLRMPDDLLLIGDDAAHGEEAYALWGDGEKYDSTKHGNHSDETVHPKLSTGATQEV

**Q.** What does the source list for `CN` [[14C]-methylammonium]?
**A.** Km [1]: 667 µM; Km [2]: 0.6 µM
